# Earlier results as cited in patent US20080255091A1, “COMPOUNDS TO TREAT AMYLOIDOSIS AND PREVENT DEATH OF BETA-CELLS IN TYPE 2 DIABETES MELLITUS” (ASTRUM THERAPEUTICS PTY LTD., priority 2005, published 2008).
# Test system: β-cell death induced by a fibrillogenic form of IAPP
compound,measurement,value
Nc1c(/N=N/c2ccc(-c3ccc(/N=N/c4cc(S(=O)(=O)O)c5ccccc5c4N)cc3)cc2)cc(S(=O)(=O)O)c2ccccc12 [Congo Red],prevention of β-cell death induced by a fibrillogenic form of IAPP,completely or partially prevented
"SNNFGA: the peptide SNNFGA, anti-amyloidosis agent from the literature (Islet amyloid polypeptide; UniProt P10997 53-58, looked up, fragment)",prevention of β-cell death induced by a fibrillogenic form of IAPP,completely or partially prevented
